Reference: paper PMC10889512, “Pyrimidine Schiff Bases: Synthesis, Structural Characterization and Recent Studies on Biological Activities” (International Journal of Molecular Sciences, 2024)

Columns and labels:
Format in all cases: cell-based, human
A172 cells [1] = assay: Flow cytometry FDA/PI staining, cell viability, A172
Protocol: A detailed analysis of potential cytotoxic mechanisms has been performed only for the selected compound (4b) where the IC50 values under 100 µM were detected in the screening NR assay. Flow cytometry was performed on the A172 and AGS cell lines. Cells were incubated with compound 4b at IC50 for 24, 48, and 72 h before analysis. Fluorescein diacetate (FDA) and propidium iodide (PI) were used as indicators for viable and nonviable (necrotic) cells. Most of the events were captured in the first and the fourth quadrant, which represent viable and necrotic cells, respectively. […] Similar results were obtained for the AGS cell line (Figure 8B), where the viability was 60.95%/55.10%/44.99% after the same incubation periods, respectively. Some events occurred in the second quadrant, but it was difficult to unequivocally categorize them into viable or nonviable (apoptotic/necrotic) cell populations, and thus more sensitive dyes, able to distinguish between the types of cell death, were needed.
Two approaches for flow cytometry were used—FDA/PI staining to determine cell viability and annexin V/PI staining for cell death pathway determination.
For cell viability determination, cells were plated in 6-well plates at a density of 1 × 10^5 cells/well and incubated for 24 h at 37 °C, 5% CO2 and in a humidified atmosphere. Next, cells were treated with 4b at a concentration calculated as IC50 in neutral red uptake assay. After 24, 48, and 72 h incubation, the cells (either adhered or floating) were collected, centrifuged at 1600 rpm, and washed with PBS. FDA and PI stock solution at a 1 mM concentration were prepared in DMSO and H2O, respectively. After centrifugation and supernatant discarding, cells were stained with FDA at a final concentration of 1 µM prepared in PBS and incubated in the dark. After 15 min, they were centrifuged at 1600 rpm, resuspended in ice-cold PBS, and placed on ice. Samples were stained with 1 µM PI for 2 min before the cytometry evaluation. […]

A172 cells [2] = assay: Flow cytometry annexin V/PI staining, cell death pathway, A172; settings: A172, at IC50, 6, 18 and 24 h
Protocol: To confirm the cell death pathway, another approach to flow cytometry was used. […] Annexin V is a specific PS-binding protein, and thus it is used to detect apoptotic cells. Very few events could be observed in the first and the second quadrant, which represent apoptotic cells. Most events occurred in the third and the fourth quadrant, where unstained and necrotic cells were located. The 24 h measurements after both flow cytometry approaches were consistent with each other. […] Two approaches for flow cytometry were used—FDA/PI staining to determine cell viability and annexin V/PI staining for cell death pathway determination. For cell death pathway determination, cells were plated in 6-well plates at a density of 3 × 10^5 cells/well. […] After 6, 18, and 24 h incubation, adhered and floating cells were harvested, centrifuged at 1600 rpm, and washed with PBS. Next, the cells were washed with 1× annexin-binding buffer, and after centrifugation, cells from each test set were suspended in 100 µL of 1× annexin-binding buffer. To each tube, 5 µL of Alexa Fluor 488-annexin V stain was added, and the cells were incubated in the dark. After 15 min incubation, the cells were centrifuged at 1600 rpm to remove the dye, then suspended in 1 mL of 1× binding buffer and kept on ice. Prior to analysis, cells were stained for 2 min with 1 µM PI. […]

A172 = assay: Neutral red uptake assay on A172; settings: A172, 72 h treatment
Protocol: Based on the results obtained for the RPTEC cell line, the following concentrations of 4b–d were chosen to be applied to neoplastic cell lines: 0.1, 1, 10, 25, 50, and 100 µM. A172, AGS, CaCo-2, HeLa, and HepG2 cancer cell lines were used to perform a neutral red uptake assay. The obtained results were compared with a negative control (cell lines incubated without tested compounds), and half-maximal inhibitory concentration (IC50) values were calculated. Cell lines were plated in 96-well plates at a density of 1 × 10^4 cells/well. After 24 h incubation, which allowed the cells to attach and start to proliferate, the culture media were replaced with 4a–d dissolved in the appropriate medium at concentrations of 1, 10, 50, 100, 150 and 200 µM. […] Negative (1% DMSO in medium) and positive (1 µM staurosporine) controls were also included. Plates were incubated at 37 °C for 24, 48, and 72 h before the neutral red uptake assay. The neutral red uptake assay was performed as described by Repetto et al.. Briefly, the medium from all wells was discarded, the attached cells were washed with 100 µL PBS, and then 100 µL of neutral red working solution in medium (40 µg/mL) was added to each well. The neutral red solution was incubated overnight in the same conditions as the cells and centrifuged before being added to the cells. The plates were incubated for at least 2 h at 37 °C, 5% CO2, in a humidified atmosphere. Next, the neutral red medium was removed, and the cells were washed with 100 µL PBS. A 100 µL quantity of destain solution consisting of 50% ethanol, 1% glacial acetic acid, and deionized water was added to each well. Plates were incubated for 30 min with constant shaking on a horizontal shaker at 37 °C. Absorption was measured at 540 nm excitation. The cells’ viability was calculated by comparing results from experimental sets with negative controls according to the formula: % viability=ODtest substance−ODblind/ODnegative control−ODblind×100

In the case of `Cc1nc(-c2ccccc2)nc(Nc2ccc(F)cc2)c1C=Nc1cccc(Cl)c1` [compound 4b, 5-{[(3-chlorophenyl)imino]methyl}-N-(4-fluorophenyl)-6-methyl-2-phenylpyrimidin-4-amine], the “Q1 events (viable cells; viability), FDA/PI” value (“Q1 events” below) (A172 cells [1]; A172, at IC50, 24 h) is reported as 59.32%, the “Q1 events” value (A172 cells [1]; A172, at IC50, 48 h) is reported as 50.98% and the “Q1 events” value (A172 cells [1]; A172, at IC50, 72 h) is reported as 43.88%. For the same compound, the cell death pathway (A172 cells [2]) was “irreversible cell injury and necrosis”, the IC50 (A172) was 63.4 µM and the IC50 (A172; Homo sapiens, A 172, 72 h) was 63.4 µM.
